In ChEMBL document CHEMBL4350955, “Novel Chemical Series of 5-Lipoxygenase-Activating Protein Inhibitors for Treatment of Coronary Artery Disease” (J Med Chem, 2019):
In brackets after ≈: the same amount, converted by molar mass.

How the values were obtained:
[1] = target: T1, Arachidonate 5-lipoxygenase-activating protein (Homo sapiens) (UniProt P20292); assay: (§1) Inhibition of FLAP in human whole blood assessed as reduction in calcium ionophore-stimulated LTB4 production preincubated for 30 mins followed by calcium ionophore stimulation and measured after 20 mins by EIA; assay type: tissue-based
T1 sequence (whole entry): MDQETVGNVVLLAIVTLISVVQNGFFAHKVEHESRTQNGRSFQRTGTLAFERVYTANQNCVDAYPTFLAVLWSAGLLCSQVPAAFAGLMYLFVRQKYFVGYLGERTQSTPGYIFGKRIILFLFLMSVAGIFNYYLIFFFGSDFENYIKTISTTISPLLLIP

[2] = Bioavailability in po dosed Sprague-Dawley rat; assay type: ADME, organism-based; settings: in vivo
[3] = Clearance in po or iv dosed Sprague-Dawley rat; assay type: ADME, organism-based; settings: in vivo
[4] = Volume of distribution at steady state in po or iv dosed Sprague-Dawley rat; assay type: ADME, organism-based; settings: in vivo, read-out: Vdss
[5] = Distribution coefficient between octanol and sodium phosphate buffer, logD of the compound in pH 7.4 buffer by LC-MS/MS-based shake flask method
[6] = target: T2, Arachidonate 5-lipoxygenase-activating protein (Homo sapiens, UniProt P20292); assay: as §1; assay type: tissue-based
T2 sequence (P20292 whole entry): T1 sequence (whole entry)

[7] = Apparent permeability across apical to basolateral side in human Caco2 cells; settings: Caco-2
[8] = Intrinsic clearance in cryopreserved human hepatocytes assessed as per million cells at 1 uM measured up to 60 mins by LC-MS/MS analysis; assay type: ADME, cell-based, Hepatocyte; settings: read-out: CLH
CYP450 = CYP450 (Homo sapiens, UniProt P04798+P05177+P05181+P08684+P10632+P10635+P11509+P11712+P13584+P20813+P20815+P20853+P24462+P24903+P33260+P33261+P51589+P78329+P98187+Q02928+Q08477+Q16678+Q16696+Q5TCH4+Q6VVX0+Q7Z449+Q8TAV3+Q96SQ9+Q9HB55); assay: Inhibition of CYP450 assessed as maximum reduction in metabolite formation using coumarin based substrate by fluorescence assay; assay type: ADME, protein assay; settings: probe coumarin based substrate
physchem = settings: phosphate buffer, pH 7.4
Description: Aqueous solubility in pH 7.4 phosphate buffer after 24 hrs by UPLC/MS/MS analysis

[9] = Half-life in po or iv dosed Sprague-Dawley rat; assay type: ADME, organism-based; settings: in vivo
[10] = target: Voltage-gated inwardly rectifying potassium channel KCNH2 (Homo sapiens, UniProt Q12809); assay: Inhibition of human ERG by high-throughput electrophysiology assay
[11] = Protein binding in human plasma assessed as unbound fraction by LC-MS based equilibrium dialysis analysis; assay type: ADME, cell-free
[12] = target: T2, Arachidonate 5-lipoxygenase-activating protein; assay: Inhibition of [3H]MK0591 binding to human FLAP expressed in […] cell membranes measured after 60 to 80 mins by scintillation counting method
[13] = Protein binding in Sprague-Dawley rat plasma assessed as unbound fraction by LC-MS based equilibrium dialysis analysis; assay type: ADME, cell-free
[14] = Metabolic stability in human hepatocytes assessed as parent compound remaining; assay type: ADME, cell-based, Hepatocyte
Cytochrome P450 2C9 = Cytochrome P450 2C9 (Homo sapiens, UniProt P11712); assay: Inhibition of recombinant human CYP2C9 expressed in Escherichia coli assessed as maximum reduction in metabolite formation using coumarin based substrate by fluorescence assay; assay type: ADME
[15] = target: T2, Arachidonate 5-lipoxygenase-activating protein; assay: (§2) Inhibition of FLAP in human whole blood assessed as reduction in calcium ionophore-stimulated LTB4 production preincubated for 4 hrs followed by calcium ionophore stimulation and measured after 20 mins by EIA; assay type: tissue-based
[16] = target: T1, Arachidonate 5-lipoxygenase-activating protein (Homo sapiens); assay: as §2; assay type: tissue-based
hERG (KCNH2) = hERG (KCNH2) (Homo sapiens, UniProt Q12809); assay: Inhibition of human ERG at 10 uM high-throughput electrophysiology assay relative to control
hERG (KCNH2), sequence (Q12809 whole entry): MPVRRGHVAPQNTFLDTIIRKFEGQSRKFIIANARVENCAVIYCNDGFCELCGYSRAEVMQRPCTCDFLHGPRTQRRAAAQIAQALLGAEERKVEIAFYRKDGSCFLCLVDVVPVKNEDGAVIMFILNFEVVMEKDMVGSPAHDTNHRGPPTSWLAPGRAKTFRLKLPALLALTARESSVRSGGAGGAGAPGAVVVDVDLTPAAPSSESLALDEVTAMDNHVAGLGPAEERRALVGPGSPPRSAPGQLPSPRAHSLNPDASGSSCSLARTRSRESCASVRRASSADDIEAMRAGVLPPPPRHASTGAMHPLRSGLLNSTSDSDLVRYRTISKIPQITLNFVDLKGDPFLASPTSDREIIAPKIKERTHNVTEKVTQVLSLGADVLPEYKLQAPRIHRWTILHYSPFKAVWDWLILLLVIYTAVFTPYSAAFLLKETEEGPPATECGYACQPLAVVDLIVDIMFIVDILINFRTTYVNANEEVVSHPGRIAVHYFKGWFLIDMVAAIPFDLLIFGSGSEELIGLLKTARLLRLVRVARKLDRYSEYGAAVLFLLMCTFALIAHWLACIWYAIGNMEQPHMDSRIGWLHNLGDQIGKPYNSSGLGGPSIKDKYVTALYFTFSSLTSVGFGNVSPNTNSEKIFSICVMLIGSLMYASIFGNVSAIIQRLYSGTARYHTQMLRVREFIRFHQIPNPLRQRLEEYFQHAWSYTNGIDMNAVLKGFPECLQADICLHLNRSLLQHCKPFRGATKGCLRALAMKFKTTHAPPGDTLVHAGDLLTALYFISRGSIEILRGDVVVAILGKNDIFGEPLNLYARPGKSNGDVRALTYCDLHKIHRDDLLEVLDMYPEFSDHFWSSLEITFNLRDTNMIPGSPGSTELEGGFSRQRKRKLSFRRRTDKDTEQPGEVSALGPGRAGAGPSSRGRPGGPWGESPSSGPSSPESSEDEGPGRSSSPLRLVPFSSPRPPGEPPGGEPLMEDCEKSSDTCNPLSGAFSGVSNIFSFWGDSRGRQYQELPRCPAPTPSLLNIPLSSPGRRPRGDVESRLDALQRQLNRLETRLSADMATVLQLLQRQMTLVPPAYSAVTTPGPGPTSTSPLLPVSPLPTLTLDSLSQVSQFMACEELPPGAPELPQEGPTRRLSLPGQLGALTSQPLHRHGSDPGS

Voltage-gated inwardly rectifying potassium channel KCNH2, sequence (Q12809 whole entry): as above
Cytochrome P450 2C9, sequence (P11712 whole entry): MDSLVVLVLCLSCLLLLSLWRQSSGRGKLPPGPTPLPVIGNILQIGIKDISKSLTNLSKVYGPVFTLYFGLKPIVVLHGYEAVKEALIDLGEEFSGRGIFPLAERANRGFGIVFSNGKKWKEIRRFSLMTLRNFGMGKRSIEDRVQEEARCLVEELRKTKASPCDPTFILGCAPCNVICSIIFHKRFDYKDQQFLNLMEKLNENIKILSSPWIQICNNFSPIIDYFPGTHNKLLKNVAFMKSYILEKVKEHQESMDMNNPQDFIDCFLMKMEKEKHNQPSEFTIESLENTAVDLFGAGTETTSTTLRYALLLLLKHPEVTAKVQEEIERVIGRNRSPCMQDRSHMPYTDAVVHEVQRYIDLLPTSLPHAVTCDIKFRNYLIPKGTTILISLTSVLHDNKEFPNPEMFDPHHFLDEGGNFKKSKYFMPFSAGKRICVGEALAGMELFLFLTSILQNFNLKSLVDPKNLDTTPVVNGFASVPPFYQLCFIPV

Compound	fpIC50 [1]	logD [5]	IC50 [6] [nM]	hepatocyte CLint at 1 µM [8] [µL/min/1e6 cells]	IC50 [12] [nM]	other results
Cc1cc(-c2ccc(C(=O)[C@@H]3CCCC[C@H]3C(=O)Nc3cn(C)nc3C(N)=O)cc2)[nH]n1	7.9	–	–	–	–	–
Cc1nn(C)cc1NC(=O)[C@@H]1CCCC[C@H]1C(=O)c1ccc(-c2cc[nH]n2)cc1F (racemic)	8	2.9	63.1	14	126	bioavailability [2]: 85%; clearance [3]: 13.3 mL/min/kg; Vd [4]: 1.1 L/kg; Papp A→B [7]: 34 ×10⁻⁶ cm/s; IC50 (CYP450): > 20000 nM; solubility at 24 h (physchem): 500 µM (≈ 205 µg/mL); half-life [9]: 1.2 h; IC50 [10]: > 12600 nM; fraction unbound [11]: 0.14; fraction unbound [13]: 0.11
Cc1cnn(-c2ccc(C(=O)[C@@H]3CCCC[C@H]3C(=O)Nc3cccc(C(N)=O)c3)cc2)c1 (racemic)	7.4	3.6	2000	–	316	–
Cn1cc(NC(=O)[C@@H]2CCCC[C@H]2C(=O)c2ccc(-c3cc[nH]n3)cc2)c(C(F)(F)F)n1	8.5	–	50.1	12	25.1	bioavailability [2]: 62%; Stability [14]: 62%; clearance [3]: 6.8 mL/min/kg; Vd [4]: 1 L/kg; half-life [9]: 1.6 h; fraction unbound [11]: 0.063; fraction unbound [13]: 0.054
Cc1nn(C)cc1NC(=O)[C@@H]1CCCC[C@H]1C(=O)c1ccc(-c2ccc[nH]2)cc1 (racemic)	–	3.1	–	–	1000	–
Cc1nn(C)cc1NC(=O)[C@@H]1CCCC[C@H]1C(=O)c1ccc(-c2cc[nH]n2)cc1 (racemic) [listing 1 of 2 here]	7.1	–	–	–	–	–
Cc1nn(C)cc1NC(=O)[C@@H]1CCCC[C@H]1C(=O)c1ccc(-c2cc[nH]n2)cc1 (racemic) [listing 2 of 2 here]	–	2.6	501	< 4	79.4	Papp A→B [7]: 26 ×10⁻⁶ cm/s; IC50 (CYP450): > 20000 nM; solubility at 24 h (physchem): 92 µM (≈ 36 µg/mL); IC50 [10]: > 12600 nM
Cn1ncc(NC(=O)[C@@H]2C[C@@H]3C[C@@H]3C[C@H]2C(=O)c2ccc(-c3cc[nH]n3)cc2)c1C(F)(F)F	8.5	3.7	50.1	12	12.6	bioavailability [2]: 100%; clearance [3]: 9.8 mL/min/kg; Vd [4]: 1.1 L/kg; IC50 (Cytochrome P450 2C9): 5010 nM; Papp A→B [7]: 59 ×10⁻⁶ cm/s; solubility at 24 h (physchem): 63 µM (≈ 28.8 µg/mL); half-life [9]: 1.4 h; fraction unbound [11]: 0.066; fraction unbound [13]: 0.04
Cc1nn(C)cc1NC(=O)[C@@H]1[C@H]2CC[C@H](CC2)[C@H]1C(=O)c1ccc(-c2cc[nH]n2)cc1F (racemic)	7.1	4	200	–	63.1	–
Cc1nn(C)cc1NC(=O)[C@H]1CCCC[C@@H]1C(=O)c1ccc(-c2cc[nH]n2)cc1	5.8	–	7940	–	2000	–
Cc1cc(-c2ccc3c([C@@H]4CCCC[C@H]4C(=O)Nc4cn(C)nc4C(N)=O)noc3c2)n[nH]1	–	3.4	–	13	79.4	Stability [14]: 68%; IC50 [15]: 63.1 nM; fpIC50 [16]: 8.5; IC50 (Cytochrome P450 2C9): 7940 nM; Papp A→B [7]: 7 ×10⁻⁶ cm/s; solubility at 24 h (physchem): 27 µM (≈ 12.1 µg/mL); IC50 [10]: > 31600 nM
Cc1cc(-c2cc[nH]n2)ccc1C(=O)[C@@H]1CCCC[C@H]1C(=O)Nc1cn(C)nc1C (racemic)	6.9	3	794	–	1000	–
Cn1cc(NC(=O)[C@@H]2CCCC[C@H]2C(=O)c2ccc(-c3cc[nH]n3)cc2)c(OC(F)F)n1	8.5	–	–	–	–	–
Cc1nn(C)cc1NC(=O)[C@@H]1CCCC[C@H]1C(=O)c1ccc(-c2ccccn2)cc1 (racemic)	6.8	2.8	2000	–	501	–
Cc1nn(C)cc1NC(=O)[C@@H]1CCCC[C@H]1C(=O)c1ccc(-c2ccnn2C)cc1 (racemic)	5.1	2.5	31600	–	25100	–
CC(C)(CNC(=O)[C@@H]1CCCC[C@H]1C(=O)c1ccc(-c2cc[nH]n2)cc1)S(C)(=O)=O	–	2.1	–	–	63.1	IC50 [15]: 126 nM; fpIC50 [16]: 7.4
O=C(Nc1cnn2cccnc12)[C@@H]1CCCC[C@H]1C(=O)c1ccc(-c2cc[nH]n2)cc1	8.4	2.9	39.8	5	31.6	Papp A→B [7]: 12 ×10⁻⁶ cm/s; IC50 (CYP450): > 20000 nM; solubility at 24 h (physchem): 60 µM (≈ 24.9 µg/mL); IC50 [10]: > 31600 nM
Cc1nn(C)cc1NC(=O)[C@@H]1CCCC[C@H]1C(=O)c1ccc(-c2cc[nH]n2)nc1 (racemic)	5.8	1.8	3980	–	1000	–
Cc1c[nH]nc1-c1ccc(C(=O)[C@@H]2CCCC[C@H]2C(=O)Nc2cn(C)nc2C)cc1 (racemic)	–	3.1	–	–	1000	–
Cc1nn(C)cc1N(C)C(=O)[C@@H]1CCCC[C@H]1C(=O)c1ccc(-c2cc[nH]n2)cc1	7.5	3	251	–	200	–
Cc1nn(C)cc1NC(=O)[C@@H]1CCCC[C@H]1C(=O)c1ccc(-c2cc[nH]n2)cc1 [listing 1 of 2 here]	7.4	–	–	–	–	–
Cc1nn(C)cc1NC(=O)[C@@H]1CCCC[C@H]1C(=O)c1ccc(-c2cc[nH]n2)cc1 [listing 2 of 2 here]	–	–	200	–	50.1	–
Cn1ncc(NC(=O)[C@@H]2CCCC[C@H]2C(=O)c2ccc(-c3cc[nH]n3)cc2)c1C(F)(F)F	8.4	3.6	50.1	7	39.8	bioavailability [2]: 100%; Stability [14]: 83%; clearance [3]: 4.8 mL/min/kg; inhibition at 10 µM (hERG (KCNH2)): 32%; Vd [4]: 0.97 L/kg; IC50 (Cytochrome P450 2C9): 6310 nM; Papp A→B [7]: 59 ×10⁻⁶ cm/s; solubility at 24 h (physchem): 80 µM (≈ 35.6 µg/mL); half-life [9]: 3 h; fraction unbound [11]: 0.075; fraction unbound [13]: 0.042
CC(=O)c1cccc(-c2ccc(C(=O)[C@@H]3CCCC[C@H]3C(=O)Nc3c(C)noc3C)cc2)c1 (racemic)	–	3.9	–	–	2510	–
COc1cc(NC(=O)[C@@H]2CCCC[C@H]2C(=O)c2ccc(-c3cc[nH]n3)cc2)ncn1	9.3	3.9	15.8	22	15.8	IC50 (Cytochrome P450 2C9): 5010 nM; Papp A→B [7]: 69 ×10⁻⁶ cm/s; solubility at 24 h (physchem): 22 µM (≈ 8.92 µg/mL); IC50 [10]: 12600 nM
O=C(NCCc1ccccn1)[C@@H]1CCCC[C@H]1C(=O)c1ccc(-c2cc[nH]n2)cc1	6.7	3	2510	–	251	–
Cc1cc(-c2ccc(C(=O)[C@@H]3CCCC[C@H]3C(=O)Nc3cn(C)nc3C(N)=O)cc2)n[nH]1	–	3.1	–	12	–	bioavailability [2]: 40%; Stability [14]: 79%; clearance [3]: 5.5 mL/min/kg; Vd [4]: 0.64 L/kg; IC50 (Cytochrome P450 2C9): 10000 nM; Papp A→B [7]: 22 ×10⁻⁶ cm/s; solubility at 24 h (physchem): 60 µM (≈ 26.1 µg/mL); half-life [9]: 1.4 h; IC50 [10]: > 31600 nM; fraction unbound [11]: 0.076; fraction unbound [13]: 0.024
Cc1noc(C)c1NC(=O)[C@@H]1CCCC[C@H]1C(=O)c1ccc(-c2cc[nH]n2)cc1 (racemic)	–	–	501	6	200	–
